From BindingDB's records for PubMed 40104800 (Jinan University)

Target: Eukaryotic elongation factor 2 kinase (mouse)
Experiment: Inhibition of eEF2K in mouse HT-22 cells preincubated for 20 mins followed by [33P]-ATP addition measured after 120 mins by radiometric Hotspot kinase assay

`C=C(c1[nH]c2ccccc2c1CN1C/C(=C/C)[C@@H]2CC(=O)c3[nH]c4ccccc4c3C[C@H]1C2C(=O)OC)[C@H]1CCN(C)C/C1=C\C` (stereo partly specified) was tested, and the IC50 was 136 µM.
